Measurements published in patent publication US20200299328A1, “POLYPEPTIDE WITH FUNCTION OF INHIBITING ABETA 42 PROTEIN AGGREGATION AND USE THEREOF, AND GENE ENCODING THE POLYPEPTIDE” (SOUTH CHINA UNIVERSITY OF TECHNOLOGY, priority 2018, published 2020).

Test system: Aβ42 protein aggregation in HEK-293-Aβ42-mCherry cells
Assay: Activity experiment of inhibiting Aβ42 protein aggregation in vitro (IncuCyte Zoom live cell imaging, tetracycline induction)
Type: cell-based
Details: compared with model group, 72 hours after tetracycline, p<0.01 (FIG. 5)
From the text: In the specific embodiments, in an application process of the polypeptide with the function of inhibiting Aβ42 protein aggregation according to the present invention, a mechanism of inhibiting AD senile plaque by the polypeptide is first researched through a visual in-vitro cell model test. Specifically, an amino acid sequence of a core component of senile plaque—an Aβ42 protein (the 22nd amino acid in a sequence of 42 amino acids—glutamic acid is mutated into glycine) is stably transferred into HEK-293 cells, so that it is stably expressed in the HEK-293 cells to form a cell model of abnormal Aβ protein aggregation, and then tetracycline is added to induce the Aβ protein to form a red fluorescent protein and emit red fluorescent light for positioning and quantifying the expression of the Aβ42 protein; and then, the polypeptide with the function of inhibiting Aβ42 protein aggregation according to the present invention is added, and a HEK293 cell model transfected with an Aβ42-red fluorescent labeling gene is used for evaluation, thus proving that the polypeptide has a remarkable activity of inhibiting Aβ42 protein aggregation. […]

Pro-Pro-Lys-Asn-Trp (PPLAT) [PW-5]
Aβ42 protein aggregation rate (PW-5 high-dose group 0.5 mM, effect more significant than low-dose group): significantly reduced
Aβ42 protein aggregation rate (PW-5 low-dose group 0.05 mM): significantly reduced
